Tests used:
[1] = system: rat C6 glioma cells; experiment: Cell proliferation, [3H]thymidine incorporation, rat C6 glioma cells; assay type: cell-based; conditions: 6.5 μM, 18 h, hHO-1-transfected rat C6 glioma cells; hydrochloride
Description: Rat C6 glioma cells were cultivated in high glucose DMEM supplemented with 10% heat-inactivated fetal bovine serum, […], and penicillin-streptomycin (50 U/mL and 50 μg/mL, respectively). […] All cultures were incubated at 37° C. in humidified 95% air-5% CO2.
Cells were seeded in 24-well plates at 1×10^6 cells/mL/well. Upon reaching >90% confluence, cells in each well were transiently transfected with 1.6 μg of plasmid DNA-Lipofectamine 2000 complex using Lipofectamine 2000 method according to manufacturer instructions (Invitrogen). 1.6 μg of plasmid DNA and 4 μL of Lipofectamine 2000 reagent were diluted individually in 100 μL opti-MEM I and incubated for 5 minutes at room temperature with gentle mixing. […]
Cell proliferation was determined by [^3H]thymidine incorporation: Cells were plated in 24-well plates at 10^6 cells/mL/well in complete medium. […] The cells were trypsinized and collected, air-dried on 21 mm glass microfibre filters (Whatman International Ltd., Maidstone, England) and analyzed by scintillation counting in a Wallac-Liquid Scintillator Counter (Perkin Elmer Life Sciences, Boston, Mass., USA). [^3H]thymidine incorporation was expressed as counts per min (cpm) per mL.

[2] = system: OVCAR-3 (human ovarian carcinoma); experiment: Ovarian carcinoma model OVCAR-3 in SCID mice; assay type: in vivo; conditions: QC-56 60 mg/kg/ip
Text: • Species and strain: […] OVCAR-3 (human ovarian carcinoma). […] Control groups received the vehicle alone.

[3] = system: SKMEL-V+ cells; experiment: Melanoma efficacy study of QC-199, SKMEL-V+ cells s.c. in Scid mice; assay type: in vivo, human; conditions: for reduction of tumor volume vs vehicle: 2 cycles
Description: BD PharMingen, San Diego, Calif.). Cryostat sections were used for CD31 staining. […] Sections were rehydrated in PBS and then blocked with 5% normal goat serum for 1 h. The sections were then incubated overnight at 4° C. with CD31 antibody diluted 1:25 in 3% BSA-PBS. […] Sections were counterstained with Harris' hematoxylin and mounted. Slides were analyzed by conventional light microscopy and photographed using color slides (Eastman Kodak, Rochester, N.Y.). Balb/c Scid mice, 6 week-old, were obtained from Charles River Laboratories, St. Zotique, PQ, Canada. The mice weighed 18-22 g. The experiments were approved by the Animal Care Committee, McGill University, Montreal. The animals were housed in individual cages (4 per cage) and were fed standard rodent chow and water ad libitum. […] When the tumors become palpable (size of a rice), mice weights were measured with a digital balance accurate to 0.05 g. […] For the infusion, mice were anesthetized using isoflurane-based system ([…] COMPACT NRB, 3975-0800-000). For the infusion, a mini pump (NE-1800, New Era Pump Systems, Inc.) was used to infuse the compound via the tail vein during a 2 h period. […] At experiment termination, mice were anesthetized with isoflurane and sacrificed by cervical dislocation. Tumors were dissected and tumor weights were measured using a digital balance.

| Compound | effect of hHO-1 transfection on 3H-thymidine incorporation [1] | reduction of tumor growth [2] | tumor size on the day of sacrifice ([2]; CDDP 3 mg/kg) [cm^3] | reduction of tumor volume vs vehicle ([3]; 30 mg/kg i.v. infusion, d1, 3, 5 per cycle) [%] | reduction of tumor volume vs vehicle ([3]; 60 mg/kg i.v. infusion, d1, 3, 5 per cycle, p less than 0.05) [%] | reduction of tumor volume vs vehicle ([3]; 200 mg/kg i.v. infusion, d1, 5 per cycle, p less than 0.01) [%] | reduction of tumor volume vs vehicle ([3]; 1000 mg/kg i.v. infusion, d1, 5 per cycle, p less than 0.01) [%] | vascularization of dissected tumors (H&E staining) ([3]; QC-199 30-1000 mg/kg) |
| --- | --- | --- | --- | --- | --- | --- | --- | --- |
| Brc1ccc(CCC2(Cn3ccnc3)OCCO2)cc1.Cl [QC-56, 1-((2-(2-(4-Bromophenyl)ethyl)-1,3-dioxolan-2-yl)methyl)-1H-imidazole hydrochloride] | significantly attenuated | approximately 15% | 1.12±0.08 |  |  |  |  |  |
| Brc1ccc(CCCCn2ccnc2)cc1.Cl [QC-199, 1-[4-(4-bromophenyl)butyl]-1H-imidazole hydrochloride] |  |  |  | 30 | 52 | 69 | 78 | dose dependent reduction in vascularization |
